The results in this text go back to paper PMC5687273 (Cell reports, 2017).

The target in the test is Cdk7^as (Homo sapiens, UniProt P50613, D92E/F91G). Briefly: in vitro kinase assay on GST-CTD, autoradiography. Format: biochemical.
Chain of Cdk7^as (P50613 2-346 F91G/D92E): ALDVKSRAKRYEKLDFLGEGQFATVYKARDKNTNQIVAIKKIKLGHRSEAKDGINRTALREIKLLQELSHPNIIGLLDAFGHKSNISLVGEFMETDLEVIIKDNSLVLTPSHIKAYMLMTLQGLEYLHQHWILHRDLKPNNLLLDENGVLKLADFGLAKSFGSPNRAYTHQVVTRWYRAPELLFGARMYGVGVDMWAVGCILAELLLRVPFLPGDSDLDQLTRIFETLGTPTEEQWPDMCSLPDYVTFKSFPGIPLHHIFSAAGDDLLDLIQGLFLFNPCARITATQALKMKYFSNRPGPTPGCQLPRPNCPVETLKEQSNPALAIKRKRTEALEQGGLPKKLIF
Chain of Cdk7^as (P51946 whole entry partner): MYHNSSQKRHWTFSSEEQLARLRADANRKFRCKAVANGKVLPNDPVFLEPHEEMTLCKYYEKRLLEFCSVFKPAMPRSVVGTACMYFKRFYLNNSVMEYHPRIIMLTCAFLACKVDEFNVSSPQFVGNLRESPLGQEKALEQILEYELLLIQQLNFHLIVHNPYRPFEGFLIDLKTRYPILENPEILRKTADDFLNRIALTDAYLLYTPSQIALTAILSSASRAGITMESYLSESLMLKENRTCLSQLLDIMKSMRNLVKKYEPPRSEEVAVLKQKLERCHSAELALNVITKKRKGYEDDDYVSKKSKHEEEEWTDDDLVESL
Chain of Cdk7^as (P51948 whole entry partner): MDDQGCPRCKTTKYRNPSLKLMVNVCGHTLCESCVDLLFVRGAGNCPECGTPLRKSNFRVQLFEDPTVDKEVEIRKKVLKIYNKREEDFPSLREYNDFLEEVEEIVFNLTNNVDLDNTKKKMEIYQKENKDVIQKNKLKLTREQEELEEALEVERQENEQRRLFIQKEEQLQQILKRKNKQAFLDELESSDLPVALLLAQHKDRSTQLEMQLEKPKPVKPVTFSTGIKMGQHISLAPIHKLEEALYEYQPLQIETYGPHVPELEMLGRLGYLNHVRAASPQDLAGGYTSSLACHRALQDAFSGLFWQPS

As usually defined, the IC50 is the point on the concentration scale where inhibition reaches its midpoint. Read a high IC50 as weaker potency in that assay. The compound `Cc1cccc(Cc2nn(C(C)(C)C)c3ncnc(N)c23)c1` [3-MB-PP1] showed an IC50 of approximately 10 nM.
